Data on 8 compounds can be found in patent US9522891B2, “Pyridazine derivatives and use thereof as medicaments for treating microRNA viral infection” (INSTITUTE OF PHARMACOLOGY AND TOXICOLOGY ACADEMY OF …, priority 2010, dated 2016).

Converted amounts (≈) assume the structure as drawn.

Data set [1] concerns rhinovirus 3 (HRV-3). Kind of data set: Measurement of inhibition index of compound. In kind it is cell-based. Conditions: highest dilution times of viral inhibition/nontoxic limit dilution times. On the procedure:
The inhibition index of drug was calculated: inhibition index=highest dilution times of viral inhibition/nontoxic limit dilution times.

Data set [2] has as its system HeLa cells. Kind of data set: Determination of the maximum nontoxic dose of the compound. To be noted: observed each 24 h for 3 days. In kind it is cell-based. Here is the method: The drug was dissolved in DMSO, diluted with cell maintenance medium by 20 times, then diluted stepwise by 2 times to form working solutions with different concentrations. HeLa cells were inoculated on 96-well plate in an amount of 10,000 (0.1 mL) per well, added with 0.1 mL maintenance medium, incubated at 37° C. in adherence manner, sucked to remove maintenance medium, replaced it with 0.2 mL of compound working solution, and maintenance medium was used as control. The growth of cell was observed each 24 h, for 3 days.

For data set [3] the following is noted: Bioorg Med Chem. 2009, 17: 621-624; cited from earlier work.
For data set [4], the system named is rhinovirus 3 (HRV-3). Kind of data set: Maximum viral inhibition concentration. In kind it is cell-based. Conditions: compound concentration giving 100% inhibition of TCID50 about 100; virus added in doubling manner.
Data set [5] deals with rhinovirus (HRV). Conditions: cited from earlier work.
For data set [6], the system named is rhinovirus 3 (HRV-3). Kind of data set: Therapeutic administration, cell protection from CPE. It is filed as cell-based.
The test system of data set [7] is rhinovirus 3 (HRV-3). Kind of data set: Prophylactic administration, cell protection from CPE. It is filed as cell-based. To be noted: 100 ng/ml, TCID50 about 100, 3 days.
The test system of data set [8] is rhinovirus 3 (HRV-3). Kind of data set: Measurement of half effective concentration (therapy). In kind it is cell-based. Conditions: Enterovirus, HRV3, HeLa cells, TCID50 about 100, 48 h, prevents 50% cells from CPE.

Consider `CCOc1ccc(OCCN2CCN(c3cc(Cl)nnc3Cl)CC2)cc1` [Control 2, 3,6-dichloro-4-{4-[2-(4-ethoxylphenoxy)ethyl]piperazin-1-yl}pyridazine], for which the Inhibition index in data set [1] is recorded as 1/625. Moreover, the Maximum nontoxic dose in [2] turned out to be 31.3 µg/mL. Besides, the toxicity entry in data set [3] is reported as “relatively low toxicity”. In addition, the “Maximum inhibition virus titer” value in data set [4] is reported as “≦200 TCID50”. In addition, the index of selectivity entry in [5] (Bioorg Med Chem. 2009, 17: 621-624) is “relatively high index of selectivity”. Further, in data set [5] (compared to Pirodavir, Bioorg Med Chem. 2009, 17: 621-624), the “inhibition activity to HRV” value is reported as “activity comparable to Pirodavir”. Moreover, the protection effects result in [6] (therapeutic administration condition) is “good protection effects”. For the same compound, the Cell protection rate in [6] (therapeutic administration, 100 ng/mL, TCID50 100, HeLa cells, 48 h) is reported as 100%. Also, the “protection effects in preventing phagocytosis (CPE)” value in data set [7] was “good protection effects”. Further, the EC50 in [8] is 0.025 µg/mL (≈ 0.0629 µM).
For the compound `CCOc1ccc(OCCCN2CCN(c3ccc(Cl)nn3)CC2)cc1` [Example 1, 3-{4-[3-(4-ethoxylphenoxy)propyl]piperazin-1-yl}-6-chloropyridazine], the melting point fell in the range of 125 to 127 °C.
With `Cc1ccc(OCCCN2CCN(c3ccc(Cl)nn3)CC2)cc1` [Example 2, 3-{4-[3-(4-methylphenoxy)propyl]piperazin-1-yl}-6-chloropyridazine], the melting point lay within 129 to 131 °C.
`CCc1ccc(OCCCN2CCN(c3ccc(Cl)nn3)CC2)cc1` [Example 3, 3-{4-[3-(4-ethylphenoxy)propyl]piperazin-1-yl}-6-chloropyridazine] came in with a melting point of 123 to 125 °C.
The same measure, in the same setting: the result for `CC(C)c1ccc(OCCCN2CCN(c3ccc(Cl)nn3)CC2)cc1` [Example 4, 3-{4-[3-(4-isopropylphenoxy)propyl]piperazin-1-yl}-6-chloropyridazine] reads 125 to 127 °C; that for `COC(=O)c1ccc(OCCCN2CCN(c3ccc(Cl)nn3)CC2)cc1` [Example 5, 4-{3-[4-(6-chloropyridazin-3-yl)piperazin-1-yl]propoxy} benzoic acid methyl ester], 128 to 130 °C; that for `CCOC(=O)c1ccc(OCCCN2CCN(c3ccc(Cl)nn3)CC2)cc1` [Example 6, 4-{3-[4-(6-chloropyridazin-3-yl)piperazin-1-yl]propoxy}benzoic acid ethyl ester], 125 to 127 °C.
`CCOC(=O)c1ccc(OCCC2CCN(c3ccc(C)nn3)CC2)cc1` [Pirodavir]: the “activity against rhinovirus (HRV)” value in data set [5] (in vivo and in vitro, literature) was “significant activity”.
